Experimental data: PubChem BioAssay (NCI)
Values joined by “and” are separate entries in the source; they are usually repeats but may differ in a detail not shown here. Identical values can stand only once.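 96-well plates; 48 h exposure; 5 concentrations. Endpoints by linear interpolation between flanking doses. Not reached: highest tested concentration assigned. GI50 marks 50% less growth. The concentration for full growth arrest is given as TGI.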

Experiments:
Experiment in all cases: inhibition of tumour cell growth, NCI panel, 48 h
OVCAR-5 ovarian = test system: OVCAR-5 ovarian
OVCAR-4 ovarian = test system: OVCAR-4 ovarian
SK-OV-3 ovarian = test system: SK-OV-3 ovarian
SR leukemia = test system: SR leukemia
SK-MEL-28 melanoma = test system: SK-MEL-28 melanoma
SK-MEL-5 melanoma = test system: SK-MEL-5 melanoma
MOLT-4 leukemia = test system: MOLT-4 leukemia
BT-549 breast = test system: BT-549 breast
MALME-3M melanoma = test system: MALME-3M melanoma
CCRF-CEM leukemia = test system: CCRF-CEM leukemia

Row | Structure (SMILES) | TGI (OVCAR-5 ovarian) | TGI (OVCAR-4 ovarian) | TGI (SK-OV-3 ovarian) | TGI (SR leukemia) | TGI (SK-MEL-28 melanoma) | TGI (SK-MEL-5 melanoma) | TGI (MOLT-4 leukemia) | TGI (BT-549 breast) | TGI (MALME-3M melanoma) | TGI (CCRF-CEM leukemia) | GI50 (OVCAR-5 ovarian) | GI50 (OVCAR-4 ovarian) | GI50 (SK-OV-3 ovarian) | GI50 (MALME-3M melanoma) | GI50 (SR leukemia) | GI50 (SK-MEL-28 melanoma) | GI50 (SK-MEL-5 melanoma) | GI50 (MOLT-4 leukemia) | GI50 (BT-549 breast) | GI50 (CCRF-CEM leukemia)
1 | COc1cc2ccc(/C=C\[N+](=O)[O-])cc2cc1OC | 30.3 µM | 7.56 µM | 28.4 µM | 5.28 µM | 7.51 µM | 17.5 µM | 19.1 µM | 5.74 µM |  |  |  |  |  |  |  |  |  |  |  | 
2 | CC(=O)OCC1OC(n2cnc(C(N)=S)c2N)C(OC(C)=O)C1OC(C)=O (stereo not given) | > 100 µM | > 100 µM | > 100 µM | > 100 µM | > 100 µM | > 100 µM | > 100 µM | > 100 µM | > 100 µM | > 100 µM |  |  |  |  |  |  |  |  |  | 
3 | O=[N+]([O-])O.[Cu+2].[NH-]CC[NH-].[NH-]CC[NH-] | > 10 µM | > 10 µM | > 10 µM | > 10 µM | > 10 µM | > 10 µM | > 10 µM | > 10 µM | > 10 µM | > 10 µM | > 10 µM | > 10 µM | > 10 µM | > 10 µM | > 10 µM | > 10 µM | > 10 µM | > 10 µM | > 10 µM | > 10 µM
4 | COc1cc([C@@H]2OC[C@@H]3C(c4cc(OC)c5c(c4)OCO5)OC[C@@H]32)cc(OC)c1OC (stereo not given in full) | > 100 µM | > 100 µM | > 100 µM | > 100 µM | > 100 µM | > 100 µM | > 100 µM | > 100 µM |  | > 100 µM |  |  |  |  |  |  |  |  |  | 
5 | CCC1C2Cc3ccc(O)cc3C1(CC)CCN2C (stereo not given) | > 100 µM | > 100 µM | > 100 µM | > 100 µM | > 100 µM | > 100 µM | > 100 µM | > 100 µM | > 100 µM | > 100 µM |  |  |  |  |  |  |  |  |  | 
6 | COc1ccc(-c2cc(=O)[nH]c3c(OC)c4ccccc4c(OC)c23)cc1 | > 100 µM | > 100 µM | > 100 µM | > 100 µM | > 100 µM | > 100 µM | > 100 µM | > 100 µM | > 100 µM | > 100 µM | 3.58 µM | 1.21 µM | 0.606 µM | 2.99 µM | 0.431 µM | 3.45 µM | 0.398 µM | 0.914 µM | 2.33 µM | 0.401 µM
7 | COc1ccc(C(=O)c2cc(OC)c(OC)c(OC)c2)cc1OC(=O)CCl | > 100 µM | > 100 µM | > 100 µM | > 100 µM | > 100 µM | 0.434 µM | > 100 µM |  | > 100 µM | > 100 µM | 3.61 µM | 0.115 µM | 0.163 µM |  | < 0.01 µM | 0.358 µM | 0.0338 µM | < 0.0209 µM | < 0.0192 µM | 0.0297 µM
8 | COc1cnc2c(c1)C(=O)c1c-2n(CCCn2ccnc2)c(=O)c2cc(F)ccc12 | 0.789 µM | 1.63 µM | 0.327 µM | 0.76 µM | 1.3 µM | 0.0717 µM | 0.131 µM | 2.86 µM | 0.619 µM |  | 0.119 µM | 0.118 µM | 0.0162 µM | 0.193 µM | < 0.01 µM | 0.191 µM | 0.0169 µM | < 0.01 µM | 0.0688 µM | 
9 | Cc1nn2c(/C=C3\C(=O)Nc4ccc(Cl)cc43)c(C)nc2s1 | > 100 µM | > 100 µM | > 100 µM | 64.4 µM | > 100 µM | > 100 µM | > 100 µM | > 100 µM | > 100 µM | > 100 µM | > 100 µM | 83 µM | 49.8 µM | > 100 µM | 4.69 µM | 27.5 µM | 10.1 µM | 35.6 µM | 63.2 µM | 21.1 µM
10 | COc1ccc(C(=O)OC2C(OC3C(O)COC(O[C@H]4C[C@H]5[C@@H]6CC=C7C[C@@H](O)CC[C@]7(C)[C@H]6CC[C@]5(C)[C@H]4[C@H](C)C(=O)CCC(C)C)C3OC(N)=O)OCC(O)C2O)cc1 (stereo not given in full) | 6.48 µM | 5.26 µM | 1.34 µM | 0.493 µM | 0.137 µM | 0.615 µM | 0.0212 µM | 3.71 µM | 1.55 µM | 0.0966 µM | 0.555 µM | 0.475 µM | 0.0423 µM | 0.182 µM | 0.00567 µM | 0.033 µM | 0.114 µM | 0.00564 µM | < 0.003 µM | < 0.003 µM
11 | COc1cc(CSc2nc3ccc(C)cc3c(=O)n2-c2ccccc2)cc(OC)c1OC | > 100 µM | > 100 µM | > 100 µM | > 40.8 µM | > 100 µM | 19.9 µM | > 100 µM | > 100 µM | > 100 µM | > 100 µM | 6.26 µM | 4.92 µM | 1.97 µM | 3.73 µM | 0.409 µM | 2.8 µM | 0.435 µM | 3.85 µM | 5.28 µM | 2.66 µM
12 | CCN(CC)CCCC(C)Nc1ccnc2cc(Oc3ccccc3)ccc12 (stereo not given) | 41.3 µM and 44.1 µM | 41.7 µM and 59.2 µM | 32.2 µM and 78.9 µM | 12.9 µM and 6.66 µM | 3.22 µM and 3.65 µM | 3.22 µM and 3.37 µM | 17.8 µM and 82.8 µM | 21.3 µM and 30.4 µM | 12.3 µM and 4.47 µM | 12.8 µM and 55.6 µM | 13.1 µM and 13.4 µM | 9.78 µM and 16 µM | 15.7 µM and 22.9 µM | 6.03 µM and 2.29 µM | 2.6 µM and 2.27 µM | 1.73 µM and 1.99 µM | 1.69 µM and 1.8 µM | 4.32 µM and 9.05 µM | 7.77 µM and 14.9 µM | 2.64 µM and 4.69 µM
13 | C=C1C(=O)O[C@H]2[C@H]1CC/C(COC(=O)NCc1cn(C)c3ccccc13)=C\CC[C@@]1(C)O[C@@H]21 | 3.96 µM | 7.92 µM |  | 4.61 µM | 3.01 µM | 2.74 µM | 5.98 µM | 1.88 µM | 3.64 µM | 2.26 µM | 1.72 µM | 2.38 µM |  | 1.92 µM | 0.395 µM | 1.43 µM | 1.41 µM | 1.92 µM | 0.469 µM | 0.335 µM
14 | CN[C@@H](C)C(=O)N[C@H](C(=O)N1CCC[C@H]1C(=O)Nc1snnc1-c1ccccc1)C1CCCCC1 | > 100 µM | 99.6 µM | 0.723 µM | > 69.7 µM | 61.6 µM | 33.9 µM | > 100 µM | > 81.5 µM | 26.2 µM | > 100 µM | > 100 µM | 5.58 µM | 0.0244 µM | 11.5 µM | 20.7 µM | 23 µM | 16.7 µM | 36.6 µM |  | 32.3 µM
